Assay results published in patent US20140241990A1, “METHODS OF USING ADENOSINE A1 RECEPTOR ACTIVATION FOR TREATING DEPRESSION” (TUFTS UNIVERSITY, priority 2011, published 2014).
“Also recorded” adds a separate entry of the source.

Legend:
mice [1] = test: Sucrose consumption test (anhedonia); assay type: in vivo, mouse; conditions: i.c.v. CCPA, three bolus injections at ZT=0, 3 and 6; vehicle baseline 30.55±3.60 g/kg; p=0.008
Experimental: Sucrose consumption experiments can be conducted known to one of skill in the art. For a typical test, mice are gradually acclimatized to increasing durations of water deprivation (0, 4, 8, 12, and 16 hours) and i.c.v. infusion of saline over the course of five days to minimize the stressfulness of the testing. On the sixth day, instead of receiving water at the end of the deprivation period, mice are given a 1% v/w solution of sucrose. This is repeated for three days (days 6-9) to establish baseline sucrose consumption levels. During the deprivation period preceding day 10, mice are given i.c.v. infusions of the identified test compound, followed by the presentation of sucrose as during baseline consumption testing. The average baseline (saline infusion) sucrose consumption is then compared to the average sucrose consumption following test compound infusion. Results are analyzed using a Student's t-test to compare means.
Sucrose consumption was conducted (Papp, M. et al., Psychopharmacology (Berl.), 104:255-9, 1991). After the acclimatization and habituation period mice were given access to sucrose for three days (days 6-9) to establish baseline sucrose consumption levels. Mice were then given i.c.v. infusions of CCPA administered as a series of three bolus injections at ZT=0, 3 and 6, followed by the presentation of sucrose (day 10). […]

mice [2] = test: Rotorod test; assay type: in vivo, mouse; conditions: CCPA versus vehicle
From the text: The rotorod used a rotating cylinder that was 4 cm in diameter, fixed 35 cm above the ground and enclosed by transparent Plexiglas. The rotorod cylinder was covered in textured rubber coating, which facilitates traction. A small electric motor provided power to turn the rotorod via a rubber belt. The rotorod was set to rotate once every 5 s.

C57Bl/6J mice [3] = test: Forced swim test (FST); assay type: in vivo, mouse; conditions: for duration of reduced immobility in forced swim test after onset of administration: cohorts tested 12, 36, 84 and 108 hours after first treatment
Experimental: The forced swim test is typically performed in a quiet experimental room as described in previous reports (Porsolt, R. et al., Arch. Int. Pharmacodyn. Ther., 229:327-336, 1977). For a typical test, animals are placed, for example, into a plexiglass cylinder (25 cm height, 25 cm diameter) containing 20 cm height of water at 23-25 C for 10 min. The animals typically display very fast swimming initially, lasting 1-2 min, followed by increasing immobility. Immobile time is measured during the last 4 min of the total period for statistical analysis. The animals are videotaped and movements are digitized from above. Immobility can be automatically scored, for example, using Ethovision (Noldus Information Technology Inc., Leesburg, U.S.A.).
The forced swim test (FST) was performed in a quiet experimental room. Animals where placed into a Plexiglass cylinder (25 cm height, 25 cm diameter) containing 20 cm height of water at 23-25° C. for 10 min. […] Immobile time was measured during the last 4 min of the total period for statistical analysis. The animals were videotaped and movements were digitized from above. Immobility was automatically scored using Ethovision (Noldus Information Technology Inc., Leesburg, U.S.A.). Results from tracking analysis were analyzed using ANOVA to compare means.

mice [4] = test: Open field test (locomotor activity); assay type: in vivo, mouse; conditions: wildtype mice treated i.c.v.
Experimental: The open field test was performed in accordance with the […] resource phenotyping protocol (Brown, S. et al., Nat. Genet., 37:1155, 2005). Open field behavior of mice was videorecorded from above, and assessed using Ethovision. Results from tracking analysis were analyzed using ANOVA to compare means.

mice [5] = test: EEG/EMG recording, vigilance state scoring and power spectra; assay type: in vivo, mouse
From the text: Mice were implanted with EEG and EMG electrodes under ketamine/xylazine anesthesia. After 5-7 days of post-operative recovery, lightweight recording cables were connected to the head implants and mice were placed in cylindrical polypropylene containers containing nest material, water and food ad libitum. Mice were acclimated to the sleep chamber for 5-7 days (12:12 light-dark (LD) cycle; lights on at 8 AM). EEGs and EMGs were then collected on a Pinnacle Technologies system and digitized at 1000 Hz. Following acclimation, baseline 24 h recordings were made.
NonREM sleep (“NREM” sleep), REM sleep and wake were determined by an experimenter blind to experimental condition. On the baseline day, the amount of each state (expressed as a percentage of total recording time) and the duration of individual sleep and wake episodes were computed. Transitions between NREM sleep and REM sleep were also measured during the light phase. To investigate sleep the beneficial effects of sleep deprivation mice, mice were sleep deprived (SD) from 8 a.m. to 8 p.m. at the beginning of the major sleep period (light phase) using a Pinnacle sleep deprivation chamber. All EEG data were analyzed by normalizing each data point to the average power of the EEG from 0.5 to 40 Hz (FIG. 4), and by normalizing each data point (+12 hr, +36 hr, +84 hr, +108 hr) to the corresponding vehicle data points (FIG. 8).
To investigate whether A1R activation alone is capable of altering the sleep architecture and mimicking the effects of sleep deprivation, the adenosine receptor agonist 2-chloro-N(6)-cyclopentyladenosine (CCPA; […]) was administered via i.c.v. cannulae. Following recovery and one week of habituation to the headstage, EEG activity was recorded from mice with i.c.v. saline vehicle infusion for two days to establish baseline EEG activity patterns. The EEG changes following injection of the A1R agonist CCPA were monitored. […] The normalized power from 0.5 to 4.0 Hz was also analyzed, comparing saline baseline to CCPA infusion (FIG. 4D).
Adenosine agonists cause a sustained enhancement of delta power during wakefulness. As a final step in testing the antidepressive actions of adenosine activation of A1Rs was determined to be sufficient to mimic the effects of sleep deprivation on depressive-like behaviors. […] The adenosine receptor agonist 2-chloro-N(6)-cyclopentyladenosine (CCPA; 500 nM) was delivered i.c.v. while performing EEG/EMG recordings.

A1R = biological target: T1, A1R (Mus musculus, UniProt Q60612); test: fEPSP enhancement at Schaeffer collateral synapse of hippocampal area CA1 in acute slices (adenosine tone); assay type: cell-based; conditions: CPT 200 nM
T1 construct: from tissue; host or cells: acute mouse hippocampal slices (C57Bl/6J background; wild type and dnSNARE mice)
T1 sequence (Q60612 1-326): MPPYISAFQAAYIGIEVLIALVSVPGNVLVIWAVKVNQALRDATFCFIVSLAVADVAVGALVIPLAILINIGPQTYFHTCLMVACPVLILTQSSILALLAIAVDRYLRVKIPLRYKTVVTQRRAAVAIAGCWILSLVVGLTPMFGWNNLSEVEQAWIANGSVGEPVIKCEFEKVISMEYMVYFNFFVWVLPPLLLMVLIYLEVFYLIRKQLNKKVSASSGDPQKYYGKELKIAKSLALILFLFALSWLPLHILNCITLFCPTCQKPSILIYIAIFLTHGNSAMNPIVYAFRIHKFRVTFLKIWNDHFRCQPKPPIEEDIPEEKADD
Experimental: Mice were briefly anaesthetized with isofluorane and then decapitated, and slices were prepared (Manzoni, O. et al., Science, 265:2098-101, 1994). The brain was rapidly extracted in cold cutting solution (124 mM NaCl, 26 mM NaHCO3, 1 mM NaHPO4, 10 mM Glucose, 1 mM sodium pyruvate, 0.6 mM ascorbate, 2.9 mM KCl, 1 mM CaCl2, 2 mM MgCl2) bubbled continuously with a 95% O2 5% CO2 gas mixture. Slices 310 μm thick were cut using a Leica VT 1000S Vibratome. Isolated hippocampal slices were transferred to a bath containing continuously oxygenated cutting solution and incubated at 30 C for a 1.5 hour recovery period. Extracellular recordings were conducted in artificial cerebrospinal fluid (aCSF, 124 mM NaCl, 26 mM NaHCO3, 1 mM NaHPO4, 10 mM Glucose, 1 mM sodium pyruvate, 2.9 mM KCl, 2 mM CaCl2, 1 mM MgCl2) continuously superfused at 1.2 mL/minute and maintained at 32.8 C. Extracellular stimulation were delivered using a 125 μm concentric Pt—Ir electrode in unipolar mode with a pulse width of 0.1 ms.
A relative measure of the extracellular adenosine level can be obtained by determining the proportional enhancement of synaptic transmission in response to the application of the A1R antagonist 8-cyclopentyltheophylline (CPT; 200 nM) an approach that has been validated using electrochemical biosensors (Schmitt, L. et al., J. Neurosci., 32:4417-25, 2012).
The physiological mechanisms underlying the effects of sleep deprivation was investigated by asking whether sleep deprivation leads to an elevation of extracellular adenosine. A relative measure of the extracellular adenosine level can be obtained by determining the proportional enhancement of synaptic transmission in response to the application of the A1R antagonist 8-cyclopentyltheophylline (CPT; 200 nM). Independent measurements of extracellular adenosine using electrochemical biosensors have validated this approach. Field excitatory postsynaptic potentials (fEPSP) were measured at the Schaeffer collateral synapse of hippocampal area CA1 before and following application of CPT.

C57Bl/6J mice [6] = test: Tail suspension test (TST); assay type: in vivo, mouse; conditions: CPT 4 mM i.c.v.
Experimental: Results from tracking analysis were analyzed using ANOVA to compare means.

[7] = CCPA 500 nm i.c.v., percentage of recording time

OCC1OC(n2cnc3c(NC4CCCC4)nc(Cl)nc32)C(O)C1O (centres unmarked) [CCPA, 2-(2-chloro-6-(cyclopentylamino)-9H-purin-9-yl)-5-(hydroxymethyl)tetrahydrofuran-3,4-diol]
sucrose consumption (mice [1]): 51.45 ± 6.35 g/kg | latency to fall / locomotor activity in rotorod test (mice [2]): without accompanying changes in locomotor activity; also recorded: do not differ | beneficial effects in forced swim test 3 and 5 days after infusion (C57Bl/6J mice [3]; 3 and 5 days after infusion): no longer observed | effect on immobile time, forced swim test (C57Bl/6J mice [3]; CCPA i.c.v. (ZT=0, 3 and 6), tested at ZT=12): decreased immobile time; also recorded: reduction in immobile time; also recorded: significantly reduces immobility | duration of reduced immobility in forced swim test after onset of administration (C57Bl/6J mice [3]): 36 h | duration of reduced immobility in forced swim test after onset of administration (C57Bl/6J mice [3]; listed as COPA): up to 36 hours | duration of beneficial effects in forced swim test (C57Bl/6J mice [3]; three i.c.v. injections spaced evenly across a 12 hour period, cohorts at 24 hours, +1, +3, +5 days): 24 h | locomotor activity / total distance traveled in open field (mice [4]): without accompanying changes in locomotor activity; also recorded: do not differ | percent wake at 12 h after administration (mice [5]; 12 h (ZT 12) after CCPA): significantly greater percentage of time awake; also recorded: increased percent wake | increased percent wake at 36 h after administration (mice [5]; 36 h following CCPA): no longer present | EEG power spectra compared to baseline saline (mice [5]; CCPA 500 nm i.c.v.): dramatic increase in the power spectra | duration of REM sleep (mice [5]; [7]): 18.13±1.30% | duration of non-REM sleep (mice [5]; [7]): 48.75±1.85% | duration of wake (mice [5]; [7]): 31.38±1.93% | delta power (0.5-4 Hz) during wakefulness after mice awoke (mice [5]; CCPA i.c.v. ZT=0, 3 and 6, p<0.001): prominent increase in delta power | percentage of time awake during administration (mice [5]; CCPA i.c.v. infusion, 500 nM): transient decrease; also recorded: decreased | acute effect on delta power (mice [5]; acute, during CCPA action): reduce delta power | time after last administration by which effects on sleep had reversed (mice [5]; reversed by ZT=11, last administration at ZT=6): ≤ 5 h | time asleep ZT 1 through 10 compared to vehicle (mice [5]; three consecutive CCPA infusions (ZT=0, 3, 6), 500 nM i.c.v., p<0.002): significantly greater time

Cn1c(=O)c2[nH]c(C3CCCC3)nc2n(C)c1=O [CPT, 8-cyclopentyltheophylline]
increase in fEPSP (adenosine tone) (A1R; WT undisturbed mice, ZT=0): 481.70±85.04% | proportional enhancement of fEPSP (adenosine tone) (A1R; WT, ZT=12 (end of light phase)): 128.15±28.91% | adenosine tone (fEPSP enhancement) (A1R; after 72 h of sleep deprivation, ZT=0): 104.62±18.31% | adenosine tone (fEPSP enhancement) (A1R; dnSNARE, ZT=0): 61.98±16.80% | adenosine tone (fEPSP enhancement) (A1R; dnSNARE, ZT=12): 27.91±5.10% | adenosine tone (fEPSP enhancement) (A1R; transient total sleep deprivation ZT 0 to ZT 12): 367.61±24.95% | basal immobility, forced swim test (C57Bl/6J mice [3]; CPT 4 mM i.c.v., no sleep deprivation): 176.43 ± 21.77 s | immobility after sleep deprivation, forced swim test (C57Bl/6J mice [3]; CPT 4 mM i.c.v., sleep deprivation): 167.70 ± 18.89 s | locomotor activity / total distance traveled in open field (mice [4]): do not differ | basal immobility, tail suspension test (C57Bl/6J mice [6]; no sleep deprivation): 187.60 ± 11.46 s | immobility after sleep deprivation, tail suspension test (C57Bl/6J mice [6]; sleep deprivation): 204.00 ± 3.58 s

CN(C)CCCN1c2ccccc2CCc2ccccc21 [imipramine]
immobility in behavioral despair tasks (C57Bl/6J mice [3]; 14 days of treatment): reduces immobility | time spent immobile, forced swim test (C57Bl/6J mice [3]; wildtype littermates, imipramine 20 mg/kg, chronic 14 days): 73.00 ± 9.53 s
